From patent US11820799B2, “Malassezia factor with antibiotic activity” (priority 2021, dated 2023) come the findings set out here.

The test system of the test is S. aureus. Kind of test: S. aureus growth curves / MIC with oxacillin in TSB. In kind it is cell-based, Staphylococcus aureus. The protocol:
S. aureus growth curves: S. aureus growth curves were performed on a BioTek Synergy™ H1 monochromator-based multi-mode microplate reader in non-treated flat bottom 96-well plates. S. aureus grown overnight in 5 mL of TSB was subcultured 1:10 in fresh TSB for 1 h. Cells were collected through centrifugation at 5,000×g for 1 min and resuspended in fresh TSB. For 0 μg/mL oxacillin, 4 μg/mL oxacillin, and 16 μg/mL oxacillin TSB was utilized with a starting OD600 of 0.02.

Regarding `Cc1onc(-c2ccccc2)c1C(=O)N[C@@H]1C(=O)N2[C@@H]1SC(C)(C)[C@@H]2C(=O)O` [oxacillin], the “growth of CFS-resistant strains with Sa-rel mutations (EVOL-P1 Y1 and IsoA)” value is, setting by setting: (4 μg/mL oxacillin in TSB) “able to grow robustly”; (16 μg/mL oxacillin in TSB) “able to grow robustly”. Moreover, under “Staphylococcus aureus, ancestral strain, rich media (tryptic soy broth, TSB)”, the MIC was in the range of 4 to 8 µg/mL.
